Test results as given in ChEMBL document CHEMBL1201861, “Genomics of Drug Sensitity in Cancer screening data, Wellcome Trust Sanger Institute”.

Tests used:
Test in all cases: cells
COR-L88 = assay type: functional, cell-based; settings: Homo sapiens
Description: SANGER: Inhibition of human COR-L88 cell growth in a cell viability assay.

Ca9-22 = assay type: functional, cell-based, Homo sapiens; settings: Homo sapiens, Ca9-22
Description: SANGER: Inhibition of human Ca9-22 cell growth in a cell viability assay.

D-542MG = assay type: functional, cell-based, Homo sapiens; settings: Homo sapiens, D-542MG
Description: SANGER: Inhibition of human D-542MG cell growth in a cell viability assay.

EFO-27 = assay type: functional, cell-based, Homo sapiens; settings: Homo sapiens, EFO-27
Description: SANGER: Inhibition of human EFO-27 cell growth in a cell viability assay.

EM-2 = assay type: functional, cell-based; settings: Homo sapiens
Description: SANGER: Inhibition of human EM-2 cell growth in a cell viability assay.

ES7 = assay type: functional, cell-based, Homo sapiens; settings: Homo sapiens, ES7
Description: SANGER: Inhibition of human ES7 cell growth in a cell viability assay.

FaDu = assay type: functional, cell-based, Homo sapiens; settings: Homo sapiens, FaDu
Description: SANGER: Inhibition of human FADU cell growth in a cell viability assay.

GR-ST = assay type: functional, cell-based; settings: Homo sapiens
Description: SANGER: Inhibition of human GR-ST cell growth in a cell viability assay.

HSC-2 = assay type: functional, cell-based, Homo sapiens; settings: Homo sapiens, HSC-2
Description: SANGER: Inhibition of human HSC-2 cell growth in a cell viability assay.

HTC-C3 = assay type: functional, cell-based, Homo sapiens; settings: Homo sapiens, HTC-C3
Description: SANGER: Inhibition of human HTC-C3 cell growth in a cell viability assay.

HuCCT-1 = assay type: functional, cell-based, Homo sapiens, HuCCT1; settings: Homo sapiens, HuCCT-1
Description: SANGER: Inhibition of human HuCCT1 cell growth in a cell viability assay.

KLE = assay type: functional, cell-based, Homo sapiens; settings: Homo sapiens, KLE
Description: SANGER: Inhibition of human KLE cell growth in a cell viability assay.

KM12 = assay type: functional, cell-based, Homo sapiens; settings: Homo sapiens, KM12
Description: SANGER: Inhibition of human KM12 cell growth in a cell viability assay.

KNS-42 = assay type: functional, cell-based, Homo sapiens; settings: Homo sapiens, KNS-42
Description: SANGER: Inhibition of human KNS-42 cell growth in a cell viability assay.

KP-4 = assay type: functional, cell-based, Homo sapiens; settings: Homo sapiens, KP-4; read-out: IC50
Description: SANGER: Inhibition of human KP-4 cell growth in a cell viability assay.

KP-N-YS = assay type: functional, cell-based; settings: Homo sapiens
Description: SANGER: Inhibition of human KP-N-YS cell growth in a cell viability assay.

KYSE-180 = assay type: functional, cell-based, Homo sapiens; settings: Homo sapiens, KYSE-180
Description: SANGER: Inhibition of human KYSE-180 cell growth in a cell viability assay.

LB996-RCC = assay type: functional, cell-based; settings: Homo sapiens
Description: SANGER: Inhibition of human LB996-RCC cell growth in a cell viability assay.

LCLC-103H cell line = assay type: functional, cell-based, Homo sapiens; settings: Homo sapiens, LCLC-103H
Description: SANGER: Inhibition of human LCLC-103H cell growth in a cell viability assay.

M059J = assay type: functional, cell-based, Homo sapiens; settings: Homo sapiens, M059J
Description: SANGER: Inhibition of human M059J cell growth in a cell viability assay.

MDA-MB-175-VII = assay type: functional, cell-based, Homo sapiens; settings: Homo sapiens, MDA-MB-175-VII
MDA-MB-361 = assay type: functional, cell-based, Homo sapiens; settings: Homo sapiens, MDA-MB-361
MDA-MB-415 = assay type: functional, cell-based; settings: Homo sapiens
MKN-7 = assay type: functional, cell-based, Homo sapiens; settings: Homo sapiens, MKN-7
Description: SANGER: Inhibition of human MKN7 cell growth in a cell viability assay.

MSTO-211H = assay type: functional, cell-based, Homo sapiens; settings: Homo sapiens, MSTO-211H
Description: SANGER: Inhibition of human MSTO-211H cell growth in a cell viability assay.

NCI-H1437 = assay type: functional, cell-based, Homo sapiens; settings: Homo sapiens, NCI-H1437
Description: SANGER: Inhibition of human NCI-H1437 cell growth in a cell viability assay.

NCI-H1563 = assay type: functional, cell-based, Homo sapiens; settings: Homo sapiens, NCI-H1563
Description: SANGER: Inhibition of human NCI-H1563 cell growth in a cell viability assay.

NCI-H358 = assay type: functional, cell-based, Homo sapiens; settings: Homo sapiens, NCI-H358
Description: SANGER: Inhibition of human NCI-H358 cell growth in a cell viability assay.

NMC-G1 = assay type: functional, cell-based, Homo sapiens; settings: Homo sapiens, NMC-G1
Description: SANGER: Inhibition of human NMC-G1 cell growth in a cell viability assay.

NOS-1 = assay type: functional, cell-based, Homo sapiens; settings: Homo sapiens, NOS-1
Description: SANGER: Inhibition of human NOS-1 cell growth in a cell viability assay.

OAW-28 = assay type: functional, cell-based, Homo sapiens; settings: Homo sapiens, OAW-28
Description: SANGER: Inhibition of human OAW-28 cell growth in a cell viability assay.

PFSK-1 = assay type: functional, cell-based, Homo sapiens; settings: Homo sapiens, PFSK-1
Description: SANGER: Inhibition of human PFSK-1 cell growth in a cell viability assay.

RPMI-2650 = assay type: functional, cell-based, Homo sapiens; settings: Homo sapiens, RPMI-2650
Description: SANGER: Inhibition of human RPMI-2650 cell growth in a cell viability assay.

Ramos-2G6-4C10 = assay type: functional, cell-based; settings: Homo sapiens
Description: SANGER: Inhibition of human Ramos-2G6-4C10 cell growth in a cell viability assay.

SK-HEP1 = assay type: functional, cell-based, Homo sapiens, SK-HEP-1; settings: Homo sapiens, SK-HEP1
Description: SANGER: Inhibition of human SK-HEP-1 cell growth in a cell viability assay.

SK-MEL-30 = assay type: functional, cell-based; settings: Homo sapiens
Description: SANGER: Inhibition of human SK-MEL-30 cell growth in a cell viability assay.

SNU-C2B = assay type: functional, cell-based, Homo sapiens; settings: Homo sapiens, SNU-C2B
Description: SANGER: Inhibition of human SNU-C2B cell growth in a cell viability assay.

SW982 = assay type: functional, cell-based; settings: Homo sapiens
Description: SANGER: Inhibition of human SW982 cell growth in a cell viability assay.

8-MG-BA = assay type: functional, cell-based, Homo sapiens; settings: Homo sapiens, 8-MG-BA
Description: SANGER: Inhibition of human 8-MG-BA cell growth in a cell viability assay.

8505C = assay type: functional, cell-based, Homo sapiens; settings: Homo sapiens, 8505C
Description: SANGER: Inhibition of human 8505C cell growth in a cell viability assay.

A204 = assay type: functional, cell-based, Homo sapiens; settings: Homo sapiens, A204
Description: SANGER: Inhibition of human A204 cell growth in a cell viability assay.

ACHN = assay type: functional, cell-based, Homo sapiens; settings: Homo sapiens, ACHN
Description: SANGER: Inhibition of human ACHN cell growth in a cell viability assay.

BHY = assay type: functional, cell-based, Homo sapiens; settings: Homo sapiens, BHY
Description: SANGER: Inhibition of human BHY cell growth in a cell viability assay.

CAKI-1 = assay type: functional, cell-based, Homo sapiens; settings: Homo sapiens, CAKI-1
Description: SANGER: Inhibition of human CAKI-1 cell growth in a cell viability assay.

TE-11 = assay type: functional, cell-based, Homo sapiens; settings: Homo sapiens, TE-11
Description: SANGER: Inhibition of human TE-11 cell growth in a cell viability assay.

TE-12 = assay type: functional, cell-based; settings: Homo sapiens
Description: SANGER: Inhibition of human TE-12 cell growth in a cell viability assay.

WM-115 = assay type: functional, cell-based, Homo sapiens; settings: Homo sapiens, WM-115
Description: SANGER: Inhibition of human WM-115 cell growth in a cell viability assay.

COLO-678 = assay type: functional, cell-based, Homo sapiens; settings: Homo sapiens, COLO-678
Description: SANGER: Inhibition of human COLO-678 cell growth in a cell viability assay.

COLO-680N = assay type: functional, cell-based, Homo sapiens; settings: Homo sapiens, COLO-680N
Description: SANGER: Inhibition of human COLO-680N cell growth in a cell viability assay.

## Cn1cncc1[C@@](N)(c1ccc(Cl)cc1)c1ccc2c(c1)c(-c1cccc(Cl)c1)cc(=O)n2C [TIPIFARNIB]
COR-L88
  IC50: > 16 µM
Ca9-22
  IC50: 2.94 µM
D-542MG
  IC50: 1.41 µM
EFO-27
  IC50: 0.714 µM
EM-2
  IC50: > 16 µM
ES7
  IC50: 1.47 µM
FaDu
  IC50: 8.38 µM
GR-ST
  IC50: 2.87 µM
HSC-2
  IC50: 5.2 µM
HTC-C3
  IC50: 4.83 µM
HuCCT-1
  IC50: 4.31 µM
KLE
  IC50: 8.91 µM
KM12
  IC50: 0.117 µM
KNS-42
  IC50: 5.76 µM
KP-4
  IC50: 13.6 µM
KP-N-YS
  IC50: > 16 µM
KYSE-180
  IC50: 3.37 µM
LB996-RCC
  IC50: 7.69 µM
LCLC-103H cell line
  IC50: 0.129 µM
M059J
  IC50: > 16 µM
MDA-MB-175-VII
  IC50: > 16 µM
MDA-MB-361
  IC50: 2.11 µM
MDA-MB-415
  IC50: 14.2 µM
MKN-7
  IC50: > 16 µM
MSTO-211H
  IC50: > 16 µM
NCI-H1437
  IC50: 8.21 µM
NCI-H1563
  IC50: > 16 µM
NCI-H358
  IC50: 4.92 µM
NMC-G1
  IC50: 0.425 µM
NOS-1
  IC50: 2.13 µM
OAW-28
  IC50: > 16 µM
PFSK-1
  IC50: > 16 µM
RPMI-2650
  IC50: 8.29 µM
Ramos-2G6-4C10
  IC50: > 16 µM
SK-HEP1
  IC50: 0.714 µM
SK-MEL-30
  IC50: 3.74 µM
SNU-C2B
  IC50: 10.4 µM
SW982
  IC50: > 16 µM
8-MG-BA
  IC50: 2.13 µM
8505C
  IC50: 0.431 µM
A204
  IC50: 3.58 µM
ACHN
  IC50: 1.12 µM
BHY
  IC50: 1.05 µM
CAKI-1
  IC50: > 16 µM
TE-11
  IC50: 1.69 µM
TE-12
  IC50: 2.82 µM
WM-115
  IC50: > 16 µM
COLO-678
  IC50: > 16 µM
COLO-680N
  IC50: 5.63 µM
